# Results: US10913750B2, “Tubulin-binding compounds, compositions and uses related thereto” (The Regents of the University of California, priority 2015, dated 2021)
# Assays:
# β-tubulin = assay: Crystal structure of T2R-TTL tubulin complex soaked with ligand; type: binding, bovine; conditions: T2R-TTL crystal soaked 24 hours with 1 mM compound
# Protocol: The crystal structure of tubulin bound to two ligands described here was obtained using an established system for tubulin crystal growth. […] Methods in Cell Biology 2010, 95:373-390.) Briefly, bovine αβ-tubulin, human RB3 or rat STMN4 stathmin-like domain, and chicken tubulin tyrosine ligase (TTL) reconstitute to form a stathmin-bound αβ-tubulin (T2R) T2R-TTL complex, which readily crystallizes. […]
# The final resolution cutoffs described here were determined optimally from a subset of diffraction images that took into consideration the signal-to-noise ratio for reflection intensities and the random half-data set correlation coefficient, CC1/2 (Karplus P. A., Diederichs K. Linking crystallographic model and data quality. Science 2012, (New York, N.Y.) 336:1030-1033.) […]
# M238 = assay: CellTiter-Glo cell viability, M238; type: cell-based
# Protocol: (§1) To determine if MI-181 had broad anti-cancer activity, we treated a diverse panel of cancer cell lines including cervical adenocarcinoma (HeLa), breast adenocarcinoma (MCF7), melanoma (M233), osteosarcoma (U205), acute lymphoblastic leukemia (CCRF-CEM), non-small cell lung carcinoma (NCI-H460), and breast adenocarcinoma (MCF7) with MI-181 and determined its cell viability IC50 (FIGS. 13A and 13B). […] Therefore, the efficacy of MI-181 was analyzed in a panel of melanoma cell lines with defined genetic backgrounds including BRAF^V600E and NRAS^Q61L mutations and varied sensitivities to Vemurafenib (BRAF inhibitor) and Trametinib (MEK inhibitor), which are currently used to treat BRAF^V600E melanomas^43,44 (FIG. 10c). […] As a general trend BRAF^V600E cell lines were slightly more sensitive than NRAS^Q61L cell lines and MI-181 was effective in Vemurafenib and Trametinib resistant cell lines (FIG. 10c and Table 3). Finally, we tested the ability of MI-181 to inhibit melanoma colony formation using the M233 and M308 cell lines (both resistant to Vemurafenib). Indeed, MI-181 was a potent inhibitor of colony formation (percentage colony formation for 10 nM MI-181=0.2±0.1 and 0.8±0.7; for 10 nM colchicine=0.1±0.06 and 1.5±0.5; and for 10 nM Vemurafenib=94±7 and 102±5) (FIG. 10d). Thus, MI-181 is a potent inhibitor of melanoma cell lines. […]
# [1] = test system: breast adenocarcinoma (MCF7); assay: Cell viability, MCF7; type: cell-based; conditions: Homo sapiens; MCF7 cells
# Protocol: as §1
smiles,measurement,setting,value
Cc1cc2nc(/C=C/c3cccnc3)sc2cc1C [MI-181],binding to tubulin in crystal structure,β-tubulin,bound to β-tubulin
same,IC50,M238,0.0305 µM
same,IC50,[1],11 µM
